Reference: patent US8685984B2, “Methods for treating HCV” (AbbVie Inc., priority 2011, dated 2014)

test system: HCV genotype 1a replicon cell line; assay: EC50 in HCV genotype 1a replicon cell line; assay type: cell-based; settings: Hepatitis C virus, read-out: EC50 value for the HCV genotype 1a replicon cell line

Compound | EC50 [nM]
Cc1cnc(C(=O)N[C@H]2CCCCC/C=C\[C@@H]3C[C@@]3(C(=O)NS(=O)(=O)C3CC3)NC(=O)[C@@H]3C[C@@H](Oc4nc5ccccc5c5ccccc45)CN3C2=O)cn1 [Compound 1, (2R,6S,13aS,14aR,16aS,Z)—N-(cyclopropylsulfonyl)-6-(5-methylpyrazine-2-carboxamido)-5,16-dioxo-2-(phenanthridin-6-yloxy)-1,2,3,5,6,7,8,9,10,11,13a,14,14a,15,16,16a-hexadecahydrocyclopropa[e]pyrrolo[1,2-a][1,4]diazacyclopentadecine-14a-carboxamide] | 0.9
COc1c(-c2ccc3cc(NS(C)(=O)=O)ccc3c2)cc(-n2ccc(=O)[nH]c2=O)cc1C(C)(C)C [Compound 2, N-(6-(3-tert-butyl-5-(2,4-dioxo-3,4-dihydropyrimidin-1(2H)-yl)-2-methoxyphenyl)naphthalen-2-yl)methanesulfonamide] | 7.7
COC(=O)N[C@H](C(=O)N1CCC[C@H]1C(=O)Nc1ccc([C@@H]2CC[C@@H](c3ccc(NC(=O)[C@@H]4CCCN4C(=O)[C@@H](NC(=O)OC)C(C)C)cc3)N2c2ccc(C(C)(C)C)cc2)cc1)C(C)C [Compound 4] | 0.01
